Experiment [1] deals with southern armyworm (Prodenia eridania, (Cram.)). Kind of experiment: Southern Armyworm Leaf Spray Test. To be noted: 500 ppm, three days. Details: key: A: excellent control; B: partial control; C: no control. The class given is in vivo. The method, then:
(§1) Suspensions of the test compounds were prepared by dissolving one gram of compound in 50 milliliters of acetone in which had been dissolved 0.1 gram (10 percent of the weight of compound) of an alkylphenoxy polyethoxyethanol surfactant, as an emulsifying or dispersing agent. The resulting solution was mixed into 150 milliliters of water to give roughly 200 milliliters of a suspension containing the compound in finely divided form. The thus-prepared stock suspension contained 0.5 percent by weight of compound. The test concentrations in parts per million by weight employed in the tests described hereinbelow were obtained by appropriate dilutions of the stock suspension with water. The test procedures were as follows:
Larvae of the southern armyworm (Prodenia eridania, (Cram.)), reared on Tendergreen bean plants at a temperature of 80±5° F. and a relative humidity of 50±5 percent, constituted the test insects.
The test compounds were formulated by diluting the stock suspension with water to give a suspension containing 500 parts of test compound per million parts of final formulation. Potted Tendergreen bean plants of standard height and age were placed on a revolving turntable and sprayed with 100-110 milliliters of test compound formulation by use of a DeVilbiss spray gun set at 10 psig air pressure. This application, which tested 25 seconds, was sufficient to wet plants to run-off. As a control, 100-110 milliliters of a water-acetone-emulsifier solution containing no test compound were also sprayed on infested plants. When dry, the paired leaves were separated and each one was placed in a 9 centimeter Petri dish lined with moistened filter paper. Five randomly selected larvae were introduced into each dish and the dishes were closed. The closed dishes were labeled and held at 80°-85° F. for three days. Although the larvae could easily consume the whole leaf within twenty-four hours, no more food was added. Larvae which were unable to move the length of the body, even upon stimulation by prodding, were considered dead. Percent mortality was recorded for various concentration levels.
In these tests the pesticidal activity of the compounds against aphid, mite, Southern Armyworm, Bean Beetle and house fly was rated as follows: […]

Experiment [2] relates to root-knot nematode (Meloidogyne incognita var. acrita). Kind of experiment: Nematode Test. The class given is in vivo. Further details: key: 1: severe galling; equal to untreated control; 2: moderate galling; 3: light galling; 4: very light galling; 5: no galling. To be noted: 10 ml of 500 ppm formulation per jar (approx. 180 cc soil), cucumber indicator crop, approx. three weeks. The method, then:
as §1
Infective migratory larvae of the root-knot nematode, (Meloidogyne incognita var. acrita) were reared in the greenhouse on roots of Rutgers variety tomato plant. Infected tomato plants were removed from the culture and the roots were chopped very finely. A small amount of inoculum from the roots was added to pint Mason jars containing approximately 180 cc of soil. The jars containing the inoculum and soil were capped and incubated for one week at room temperature. During this period eggs of the nematode hatched and the larvae forms migrated into the soil.
The test compounds were formulated by diluting the stock suspension with water to give a suspension containing 500 parts of test compound per million parts of final formulation. 10 milliliters of the test formulation was added to each of two jars for each dosage treated. As a control 10 milliliters of a water-acetone-emulsifier solution containing no test compound was also added to jars containing nematode larvae. The jars were capped and the contents thoroughly mixed on a kale mill for five minutes. The jars remained capped at room temperature for a period of 48 hours and the contents were then transferred to 3 inch pots. Subsequently, the pots were seeded to cucumber as an indicator crop and placed in the green house where they were cared for in the normal fashion for growing potted cucumber for approximately three weeks. These cucumber plants were then removed from the pots, the soil washed from the roots and the amount of galling visually rated.
The nematocidal toxicity has the following ratings;

This note sets out measurements from patent publication US4413007A, “Pesticidal symmetrical N-substituted bis-carbamoyloximino disulfide compounds” (priority 1978, dated 1983).

Turning to `CN(SSN(C)C(=O)ON=C1CSCCS1)C(=O)ON=C1CSCCS1` [N,N'-Bis-[1,4-Dithiane-2-O-(N-methylcarbamoyl)oximino]disulfide], the “Southern Armyworm control rating” value in experiment [1] is “A”. Also, in experiment [2], the “Root-Knot Nematode galling rating” value turned out to be 1.

With `CC(=NOC(=O)N(C)SSN(C)C(=O)ON=C(C)SCCC#N)SCCC#N` [N,N'-Bis-[1-(2-Cyanoethylthio)acetaldehyde O-(N-methylcarbamoyl)oxime]disulfide], the “Southern Armyworm control rating” value in experiment [1] is “A”. Besides, the “Root-Knot Nematode galling rating” value in experiment [2] is on record as 4.

Take `CSC(C)=NOC(=O)N(C)SSN(C)C(=O)ON=C(C)SC` [N,N'-Bis-[1-Methylthioacetaldehyde O-(N-methylcarbamoyl)oxime]disulfide]: in experiment [1], the “Southern Armyworm control rating” value was “A”. The “Root-Knot Nematode galling rating” value in experiment [2] was found to be 1.
